# Test results: ChEMBL document CHEMBL1201862, “PubChem BioAssay data set” (2004)
# Active and inactive are the calls of the source.
# Experiments:
# P388 = experiment: cells; type: functional; details: Mus musculus
# SN12K1 = experiment: cells; type: functional; details: Homo sapiens
# P388/ADR = experiment: cells; type: functional; details: Mus musculus
# H9c2 = experiment: cells; type: functional, cell-based; details: Rattus norvegicus, H9c2, Myocardium;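 also: confirmatory concentration-response retest of ultra-high-throughput screening hits for modulation of myocardial damage; cell death induced by hydrogen peroxide oxidative stress; compound pretreatment for 60 min then peroxide exposure for 2 h; potency is for protecting the cells against peroxide damage rather than for killing them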
# [1] = HEK-293T cell viability reduction – luminescence, B-cell screen hits, cytotoxicity control for BCR NF-kB inhibitor project, dose response (AID 489021); type: functional, cell-based;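 also: HEK-293T cells carrying an NF-kB luciferase reporter; cells exposed to compound for about 14 hours before viability readout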
# BJ [2] = experiment: BJ-TERT-LT-ST fibroblast viability loss – cell-based, RAS-independent, luminescence, dose response (AID 1935); type: functional; details: Homo sapiens;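 also: BJ fibroblasts immortalized with TERT plus LT and ST oncogenes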
# BJ [3] = experiment: cells; type: functional, cell-based; details: Homo sapiens
# BJ [4] = experiment: BJ-TERT fibroblast viability loss – cell-based, RAS-independent, luminescence, dose response (AID 1933); type: functional; details: Homo sapiens
# [5] = DRD fibroblast viability loss – cell-based, non-viral oncogenic, luminescence, dose response (AID 1934); type: functional; details: Homo sapiens
# [6] = target: T1, Heat shock factor protein 1 (Mus musculus, UniProt P38532); experiment: enhancement of HSF1-driven luciferase signal – cell-based, NIH3T3, luminescence, dose retest, confirmation (AID 435004); type: functional;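 also: stress induced by proteasome inhibitor MG132 added 30 min after compound; luciferase reporter driven by HSF1 response element in NIH3T3 cells; actives raise luminescence as potentiators of the MG132 stress response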
# T1 sequence (P38532 whole entry): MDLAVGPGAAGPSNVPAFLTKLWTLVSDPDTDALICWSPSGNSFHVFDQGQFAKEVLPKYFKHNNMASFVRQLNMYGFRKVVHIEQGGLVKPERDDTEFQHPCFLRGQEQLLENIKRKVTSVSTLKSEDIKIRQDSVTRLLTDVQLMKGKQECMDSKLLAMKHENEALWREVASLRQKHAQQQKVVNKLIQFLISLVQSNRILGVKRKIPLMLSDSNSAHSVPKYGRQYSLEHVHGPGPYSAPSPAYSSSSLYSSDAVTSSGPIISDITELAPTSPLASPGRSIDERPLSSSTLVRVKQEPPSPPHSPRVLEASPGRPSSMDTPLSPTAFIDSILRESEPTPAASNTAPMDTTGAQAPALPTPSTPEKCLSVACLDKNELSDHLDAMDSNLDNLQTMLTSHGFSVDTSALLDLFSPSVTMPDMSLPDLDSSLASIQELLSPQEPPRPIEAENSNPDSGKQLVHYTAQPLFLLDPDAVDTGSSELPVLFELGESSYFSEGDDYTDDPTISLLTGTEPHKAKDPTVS
# [7] = target: T2, High affinity choline transporter 1 (Homo sapiens, UniProt Q9GZV3); experiment: human choline transporter blockers, potency – cell-based, 5-point CRC, membrane potential dye, dose response (AID 504840); type: functional
# T2 sequence (Q9GZV3 whole entry): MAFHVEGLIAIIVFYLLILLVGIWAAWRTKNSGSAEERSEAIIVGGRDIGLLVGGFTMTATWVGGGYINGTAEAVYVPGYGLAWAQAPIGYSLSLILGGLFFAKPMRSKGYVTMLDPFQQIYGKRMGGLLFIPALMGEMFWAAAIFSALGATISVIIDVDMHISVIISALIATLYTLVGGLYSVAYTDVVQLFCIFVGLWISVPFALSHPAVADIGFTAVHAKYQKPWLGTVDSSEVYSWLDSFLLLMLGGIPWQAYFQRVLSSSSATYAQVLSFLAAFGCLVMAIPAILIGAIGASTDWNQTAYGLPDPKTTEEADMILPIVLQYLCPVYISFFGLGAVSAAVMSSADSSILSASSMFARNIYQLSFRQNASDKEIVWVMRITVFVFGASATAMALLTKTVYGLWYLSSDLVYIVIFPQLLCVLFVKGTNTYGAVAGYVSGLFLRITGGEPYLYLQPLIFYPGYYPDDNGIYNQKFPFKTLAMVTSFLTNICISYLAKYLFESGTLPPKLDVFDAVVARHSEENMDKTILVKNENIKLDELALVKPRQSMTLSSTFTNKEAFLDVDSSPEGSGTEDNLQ
# INS1 = experiment: INS-1E survival protection against cytokine death – cell-based, luminescence, retest, dose response (AID 449756); type: functional; details: Rattus norvegicus;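 also: cell death triggered by IL-1 beta plus TNF-alpha plus IFN-gamma mixture; protective hits raise ATP signal compared with cytokine alone wells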
# [8] = blockers of HIV-1 ZM109 envelope-driven cell-cell fusion – HeLa effector, CEM target cells, luciferase, cherry-pick, dose response (AID 652058); type: functional, cell-based;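 also: luciferase signal from HIV-1 Env mediated cell-cell fusion of effector and target cells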
# [9] = off-target signal loss in HeLa-CEM21 co-culture – HeLa F-luc CTL cells, cherry-picked, counter-screen for HIV-1 Env fusion inhibitor project, dose response (AID 652040); type: functional, cell-based;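 also: potency for signal decrease marking cytotoxic or nonspecific inhibition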
# [10] = blockers of HIV-1 envelope-mediated cell-cell fusion – cherry-pick, dose response (AID 652057); type: functional, cell-based
# [11] = target: T3, Ubiquitin-conjugating enzyme E2 N (Homo sapiens, UniProt P61088); type: functional;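 also: Dose-response confirmation in a TR-FRET assay detecting UBC13-driven polyubiquitin chain formation, inhibition measured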
# T3 sequence (P61088 whole entry): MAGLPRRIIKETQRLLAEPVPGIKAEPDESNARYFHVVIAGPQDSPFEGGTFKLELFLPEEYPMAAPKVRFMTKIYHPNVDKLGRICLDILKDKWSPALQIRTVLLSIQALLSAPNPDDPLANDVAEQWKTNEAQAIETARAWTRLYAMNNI
# [12] = target: Glyceraldehyde-3-phosphate dehydrogenase (Homo sapiens, UniProt P04406)
# Sequence of Glyceraldehyde-3-phosphate dehydrogenase (P04406 whole entry): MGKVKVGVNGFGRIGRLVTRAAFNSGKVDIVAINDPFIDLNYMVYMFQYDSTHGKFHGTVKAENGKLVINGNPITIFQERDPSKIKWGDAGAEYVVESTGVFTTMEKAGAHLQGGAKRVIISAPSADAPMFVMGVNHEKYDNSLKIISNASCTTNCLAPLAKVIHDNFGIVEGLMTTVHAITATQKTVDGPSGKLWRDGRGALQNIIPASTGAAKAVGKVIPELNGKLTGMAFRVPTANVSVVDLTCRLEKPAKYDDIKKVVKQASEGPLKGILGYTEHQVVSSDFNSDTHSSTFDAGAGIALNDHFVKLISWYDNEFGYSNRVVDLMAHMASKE
# [13] = P. falciparum Dd2 growth inhibitors, dose response, SYBR Green, cherry-picked samples (AID 1159567); type: functional, cell-based
# [14] = HIV-1 AD8 envelope cell-cell fusion blockers – cherry-pick, dose response (AID 652062); type: functional, cell-based;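 also: luciferase signal from cell-cell fusion driven by HIV-1 clade B AD8 Env; potency is for inhibitors of fusion seen as a drop in luminescence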
# [15] = target: T4, Calpain-2 catalytic subunit (Sus scrofa, UniProt P43367); experiment: m-calpain protease blockers, concentration series – biochemical, fluorogenic peptide substrate, dose response (AID 1420); type: functional
# T4 sequence (P43367 whole entry): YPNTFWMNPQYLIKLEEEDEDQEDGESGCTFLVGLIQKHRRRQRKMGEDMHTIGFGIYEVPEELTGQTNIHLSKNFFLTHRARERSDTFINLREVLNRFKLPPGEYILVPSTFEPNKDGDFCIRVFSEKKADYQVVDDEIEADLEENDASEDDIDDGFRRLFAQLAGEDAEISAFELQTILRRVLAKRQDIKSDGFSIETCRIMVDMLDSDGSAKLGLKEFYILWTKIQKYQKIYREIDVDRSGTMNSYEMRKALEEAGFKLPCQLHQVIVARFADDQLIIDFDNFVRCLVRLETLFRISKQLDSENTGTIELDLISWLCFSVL
# [16] = target: T5, Corticotropin-releasing factor receptor 2/Corticotropin-releasing factor-binding protein (Homo sapiens, UniProt P24387+Q13324); experiment: activators of CRF receptor 2 with binding protein – uHTS hits, confirmation (AID 602473); type: functional; details: read-out: EC50_Mean
# T5 sequence (Q13324 whole entry): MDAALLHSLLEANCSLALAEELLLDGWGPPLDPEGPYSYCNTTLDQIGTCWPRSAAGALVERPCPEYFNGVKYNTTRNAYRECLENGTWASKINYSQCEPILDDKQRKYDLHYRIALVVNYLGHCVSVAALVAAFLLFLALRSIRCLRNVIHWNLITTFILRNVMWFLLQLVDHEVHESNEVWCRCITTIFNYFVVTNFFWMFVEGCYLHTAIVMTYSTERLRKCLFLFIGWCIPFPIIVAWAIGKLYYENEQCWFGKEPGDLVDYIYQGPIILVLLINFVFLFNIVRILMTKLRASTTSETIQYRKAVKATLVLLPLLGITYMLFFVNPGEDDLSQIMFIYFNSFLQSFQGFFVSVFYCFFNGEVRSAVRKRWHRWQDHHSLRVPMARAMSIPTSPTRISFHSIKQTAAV
# T5 sequence (P24387 whole entry): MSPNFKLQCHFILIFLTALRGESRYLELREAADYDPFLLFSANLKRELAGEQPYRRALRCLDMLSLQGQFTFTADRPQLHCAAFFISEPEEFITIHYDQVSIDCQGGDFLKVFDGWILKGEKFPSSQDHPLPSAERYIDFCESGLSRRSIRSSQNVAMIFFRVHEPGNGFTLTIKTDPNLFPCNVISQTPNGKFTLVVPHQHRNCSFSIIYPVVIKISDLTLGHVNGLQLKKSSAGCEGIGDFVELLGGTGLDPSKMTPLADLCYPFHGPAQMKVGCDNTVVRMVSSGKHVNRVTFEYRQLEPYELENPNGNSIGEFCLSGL
compound,measurement,setting,value
CN(C)CCNC(=O)c1cccc2nc(-c3ccccc3)oc12,GI50,P388,4.34 µM (inactive)
same,GI50,SN12K1,22.8 µM (inactive)
same,GI50,P388/ADR,8.63 µM (inactive)
CC[C@@]1(O)C[C@H](OC2CC(N(C)C)C(OC3CC(O)C(OC4CC(O)C(O)C(C)O4)C(C)O3)C(C)O2)c2c(cc3c(c2O)C(=O)c2c(O)ccc(O)c2C3=O)[C@H]1C(=O)OC (stereo partly drawn),GI50,P388,0.00693 µM (active)
same,GI50,SN12K1,0.00695 µM (active)
same,GI50,P388/ADR,0.713 µM (active)
CC(=O)OC1CC2(O)C(CCC3(C)C(c4ccc(=O)oc4)CCC32O)C2(C)CCC(O)C=C12 (stereo not drawn),GI50,P388,4.37 µM (inactive)
same,GI50,SN12K1,0.0196 µM (active)
same,GI50,P388/ADR,7.26 µM (inactive)
COc1ccc(NC(=O)c2cc(-c3ccccn3)nc3ccccc23)cc1S(=O)(=O)N(C)C,IC50,H9c2,> 79 µM (inactive)
same,IC50,[1],> 80 µM (inactive)
CC(C)Nc1nc(Cl)nc(N(C#N)CN2C(=O)c3ccccc3C2=O)n1,EC50,BJ [2],> 150 µM (inconclusive)
same,EC50,BJ [3],16.2 µM (active)
same,EC50,BJ [4],10.1 µM (active)
same,EC50,[5],17.9 µM (active)
same,EC50,[6],27.9 µM (active)
same,IC50,[7],1.58 µM (active)
Cc1nn(C(C)(C)C)c(OC(=O)c2ccc(Br)o2)c1Sc1ccccc1,IC50,[1],> 80 µM (inactive)
N=c1c2c(n(Cc3ccc(Cl)cc3Cl)c3c1CCC3)CCCC2,AC50,INS1,3.58 µM (active)
same,IC50,[1],> 80 µM (inactive)
C[C@@]12C(=O)N(Cc3ccc(F)cc3)CC(=O)N1[C@H]1c3cc(Cl)ccc3OC[C@@H]1[C@@H]2c1ccccc1,AC50,[8],8.91 µM (active)
same,AC50,[9],7.95 µM (active)
same,AC50,[10],5.93 µM (active)
CC1(C)CC2(CC(C)(C)N1O)NC(=O)OC2=O,GI50,P388,60.7 µM (inactive)
same,GI50,SN12K1,> 100 µM (inactive)
same,GI50,P388/ADR,4.47 µM (inactive)
O=C(NCC1CCN(Cc2ccc(F)cc2)CC1)C1CCCN(c2ncnc3c2nc2n3CCCCC2)C1 (stereo not drawn),IC50,[11],> 20 µM (inactive)
C[C@@H]1CN(C2=C(Cl)C(=O)N(c3cccc(C(F)(F)F)c3)C2=O)CCN1,IC50,[12],> 50 µM (inconclusive)
CC(C)(O)C#Cc1cccc(-c2nc(C(=O)N[C@@H]3CCN(Cc4ccccc4)C3)cc3c2[C@H](CCO)N([S+]([O-])C(C)(C)C)C3)c1 (stereo partly drawn),AC50,[13],5.86 µM (active)
COc1ccccc1/C=N/N1C(=O)C(CC(=O)Nc2ccc([N+](=O)[O-])cc2OC)S/C1=N\c1cccc(C)c1C (stereo not drawn),EC50,BJ [2],14.9 µM (inconclusive)
same,EC50,BJ [3],22.9 µM (active)
same,EC50,BJ [4],10.6 µM (active)
same,EC50,[5],4.24 µM (active)
COc1ccc(/C=N\NC(=O)c2c(C)nc3ccc(Br)cn23)cc1,EC50,BJ [2],2.67 µM (inconclusive)
same,EC50,BJ [3],2.71 µM (active)
same,EC50,BJ [4],3.13 µM (active)
same,IC50,H9c2,12.1 µM (active)
same,EC50,[5],2.9 µM (inconclusive)
COCCn1nnnc1CN(CCc1ccccc1)Cc1cc2cc(OC)ccc2nc1O,AC50,[8],5.58 µM (active)
same,AC50,[9],26.9 µM (active)
same,AC50,[10],5.69 µM (active)
same,IC50,H9c2,16.1 µM (active)
same,AC50,[14],1.48 µM (active)
Cc1cccc(N2C(=O)C(Cl)=C(N3CCN(c4ncccn4)CC3)C2=O)c1,IC50,[12],> 50 µM (inconclusive)
CN(CO)c1nc(N(C)CO)nc(N(C)CO)n1 [TRIMELAMOL],GI50,P388,6.15 µM (inactive)
same,GI50,SN12K1,4.98 µM (inactive)
same,GI50,P388/ADR,16.3 µM (inactive)
O=C(CCCN1C(=O)/C(=C/c2ccccc2Cl)SC1=S)NNC(=O)c1ccncc1,IC50,[1],> 80 µM (inactive)
Nc1c(Cl)cc2c(c1Oc1ccccc1)C(=O)c1ccccc1C2=O,AC50,[8],14.3 µM (active)
same,AC50,[9],11.2 µM (active)
same,AC50,[10],11.2 µM (active)
same,AC50,[14],16.4 µM (active)
same,IC50,[15],2.46 µM (not active)
CC(C)CNS(=O)(=O)c1ccc(CCC(=O)N2CCN(Cc3ccc4c(c3)OCO4)CC2)cc1,AC50,[8],12.1 µM (active)
same,AC50,[14],27.2 µM (active)
CS(=O)(=O)N(Cc1ccc(Cl)cc1)c1ccc(C(=O)NCCSc2ccccn2)cc1,AC50,[8],52.2 µM (active)
same,EC50,[16],> 53 µM (inactive)
same,AC50,[9],18.6 µM (active)
same,AC50,[10],5.5 µM (active)
same,AC50,[14],6.23 µM (active)
Cc1ccc(C(=O)Nc2ncn(C3CC(O)C(CO)O3)c(=O)n2)cc1 (stereo not drawn),GI50,P388,5.26 µM (inactive)
same,GI50,SN12K1,> 100 µM (inactive)
same,GI50,P388/ADR,3.69 µM (inactive)
